Results published in PMC9892271 (Journal of medicinal chemistry, 2023).
Read-outs that look alike come from different tables or passages of the source. Values belong to the compound of their own block, whether it stands above or below them.

Legend:
NTMT1 = molecular target: T1, NTMT1 (Homo sapiens, UniProt Q9BV86)
T1 sequence (Q9BV86 1-222): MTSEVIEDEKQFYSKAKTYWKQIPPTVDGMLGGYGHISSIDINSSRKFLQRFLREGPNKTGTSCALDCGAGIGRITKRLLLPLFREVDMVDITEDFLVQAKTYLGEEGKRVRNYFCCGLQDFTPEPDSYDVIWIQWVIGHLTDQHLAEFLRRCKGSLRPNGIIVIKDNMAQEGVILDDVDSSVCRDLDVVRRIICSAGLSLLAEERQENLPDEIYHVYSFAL

[1] = tested on: me3-RCC1 and me3-SET in HEK293 cells; assay: cellular N-methylation level study; type: cell-based
NNMT = molecular target: T2, NNMT (Homo sapiens, UniProt P40261); assay: SAHH-coupled selectivity assay, NNMT; type: biochemical
T2 sequence (P40261 1-264): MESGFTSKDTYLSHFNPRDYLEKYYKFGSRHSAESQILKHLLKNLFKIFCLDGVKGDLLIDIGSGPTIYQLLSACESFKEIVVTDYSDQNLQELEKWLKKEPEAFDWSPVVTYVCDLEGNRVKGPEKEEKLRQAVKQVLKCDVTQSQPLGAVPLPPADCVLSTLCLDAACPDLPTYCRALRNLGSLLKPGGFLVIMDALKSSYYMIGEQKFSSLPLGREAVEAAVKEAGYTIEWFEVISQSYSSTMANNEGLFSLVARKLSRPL

G9a = molecular target: T3, G9a (Homo sapiens, UniProt Q96KQ7); assay: SAHH-coupled selectivity assay, G9a; type: biochemical
T3 sequence (Q96KQ7 1-1210): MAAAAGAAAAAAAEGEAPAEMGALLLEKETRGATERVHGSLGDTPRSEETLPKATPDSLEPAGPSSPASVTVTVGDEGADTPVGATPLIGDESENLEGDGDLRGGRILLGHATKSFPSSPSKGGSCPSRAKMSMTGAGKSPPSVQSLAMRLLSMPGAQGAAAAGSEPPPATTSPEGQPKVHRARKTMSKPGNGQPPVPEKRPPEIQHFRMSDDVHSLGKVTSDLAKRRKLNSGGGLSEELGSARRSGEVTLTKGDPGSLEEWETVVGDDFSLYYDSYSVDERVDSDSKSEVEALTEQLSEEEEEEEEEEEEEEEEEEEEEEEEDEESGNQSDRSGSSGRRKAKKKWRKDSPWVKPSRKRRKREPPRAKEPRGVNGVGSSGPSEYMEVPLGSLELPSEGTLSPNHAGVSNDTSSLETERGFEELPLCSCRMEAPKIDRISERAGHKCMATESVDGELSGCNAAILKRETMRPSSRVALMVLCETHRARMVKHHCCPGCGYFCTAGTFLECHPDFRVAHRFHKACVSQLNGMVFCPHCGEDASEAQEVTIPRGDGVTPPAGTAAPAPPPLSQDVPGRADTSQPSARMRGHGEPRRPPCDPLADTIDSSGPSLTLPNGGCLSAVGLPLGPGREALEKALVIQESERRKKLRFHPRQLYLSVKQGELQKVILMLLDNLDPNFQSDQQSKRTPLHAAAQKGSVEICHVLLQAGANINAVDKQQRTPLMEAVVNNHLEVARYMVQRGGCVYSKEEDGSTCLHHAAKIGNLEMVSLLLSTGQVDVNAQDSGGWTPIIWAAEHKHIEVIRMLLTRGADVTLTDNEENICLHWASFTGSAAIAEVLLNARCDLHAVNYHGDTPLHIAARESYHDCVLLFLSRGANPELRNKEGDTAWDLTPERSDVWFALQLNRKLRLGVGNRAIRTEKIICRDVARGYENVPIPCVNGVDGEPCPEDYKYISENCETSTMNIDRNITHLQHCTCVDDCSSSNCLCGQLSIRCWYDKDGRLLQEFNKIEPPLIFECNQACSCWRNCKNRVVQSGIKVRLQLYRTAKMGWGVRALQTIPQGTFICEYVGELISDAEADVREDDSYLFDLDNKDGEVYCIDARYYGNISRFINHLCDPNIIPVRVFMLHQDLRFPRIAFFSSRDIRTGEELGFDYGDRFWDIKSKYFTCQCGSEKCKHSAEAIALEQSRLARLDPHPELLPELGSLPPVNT

TbPRMT7 = TbPRMT7 (Trypanosoma brucei brucei, UniProt Q582G4); assay: SAHH-coupled selectivity assay, PRMT7; type: biochemical
Chain of TbPRMT7 (Q582G4 whole entry): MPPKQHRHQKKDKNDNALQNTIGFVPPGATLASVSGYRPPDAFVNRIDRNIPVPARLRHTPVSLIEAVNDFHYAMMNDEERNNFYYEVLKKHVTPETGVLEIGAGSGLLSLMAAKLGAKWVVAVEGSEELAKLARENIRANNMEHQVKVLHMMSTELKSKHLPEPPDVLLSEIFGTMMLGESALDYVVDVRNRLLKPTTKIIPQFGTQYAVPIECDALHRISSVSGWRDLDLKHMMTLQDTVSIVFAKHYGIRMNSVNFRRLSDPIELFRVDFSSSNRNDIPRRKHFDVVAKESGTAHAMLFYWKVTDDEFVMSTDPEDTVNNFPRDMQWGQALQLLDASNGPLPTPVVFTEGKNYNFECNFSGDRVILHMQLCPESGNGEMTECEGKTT

NTMT2 = NTMT2 (Homo sapiens, UniProt Q5VVY1); assay: SAM-dependent methyltransferase panel; type: biochemical; settings: single dose of 50 μM
Chain of NTMT2 (Q5VVY1 whole entry): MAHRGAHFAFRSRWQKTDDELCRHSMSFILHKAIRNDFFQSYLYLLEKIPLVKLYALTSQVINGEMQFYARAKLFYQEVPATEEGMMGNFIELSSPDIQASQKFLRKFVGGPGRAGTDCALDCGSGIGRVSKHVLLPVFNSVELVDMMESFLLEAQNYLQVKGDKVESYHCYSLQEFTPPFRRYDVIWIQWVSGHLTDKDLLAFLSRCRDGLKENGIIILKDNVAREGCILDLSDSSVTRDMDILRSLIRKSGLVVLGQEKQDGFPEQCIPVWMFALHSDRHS

SETD7 = molecular target: T4, SETD7 (Homo sapiens, UniProt Q8WTS6); assay: SAHH-coupled selectivity assay, SETD7; type: biochemical
T4 sequence (Q8WTS6 1-366): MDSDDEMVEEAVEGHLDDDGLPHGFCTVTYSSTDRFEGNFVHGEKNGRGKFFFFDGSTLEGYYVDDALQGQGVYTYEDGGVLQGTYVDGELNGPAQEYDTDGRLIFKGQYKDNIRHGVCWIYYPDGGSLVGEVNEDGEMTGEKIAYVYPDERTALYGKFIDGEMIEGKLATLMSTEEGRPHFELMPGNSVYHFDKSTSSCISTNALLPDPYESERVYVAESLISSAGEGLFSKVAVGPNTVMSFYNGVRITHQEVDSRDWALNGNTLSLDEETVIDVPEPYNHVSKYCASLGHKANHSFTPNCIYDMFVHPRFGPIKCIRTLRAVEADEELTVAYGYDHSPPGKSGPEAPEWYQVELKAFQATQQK

PRMT1 = PRMT1 (Homo sapiens, UniProt Q99873); assay: SAHH-coupled selectivity assay, PRMT1; type: biochemical
Chain of PRMT1 (Q99873 whole entry, species assumed): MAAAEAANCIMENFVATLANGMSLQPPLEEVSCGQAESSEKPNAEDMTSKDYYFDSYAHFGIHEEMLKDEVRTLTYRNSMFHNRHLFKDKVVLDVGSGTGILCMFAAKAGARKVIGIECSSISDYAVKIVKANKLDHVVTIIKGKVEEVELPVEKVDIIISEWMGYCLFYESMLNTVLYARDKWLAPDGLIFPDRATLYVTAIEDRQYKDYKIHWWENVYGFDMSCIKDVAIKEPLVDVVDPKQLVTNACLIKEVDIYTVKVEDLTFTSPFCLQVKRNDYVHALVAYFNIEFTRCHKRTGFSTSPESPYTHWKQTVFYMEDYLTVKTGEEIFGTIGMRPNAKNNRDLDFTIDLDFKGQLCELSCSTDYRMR

SAHH = SAHH (Homo sapiens, UniProt P23526); assay: selectivity assay, coupling enzyme SAHH; type: biochemical
Chain of SAHH (P23526 whole entry, species assumed): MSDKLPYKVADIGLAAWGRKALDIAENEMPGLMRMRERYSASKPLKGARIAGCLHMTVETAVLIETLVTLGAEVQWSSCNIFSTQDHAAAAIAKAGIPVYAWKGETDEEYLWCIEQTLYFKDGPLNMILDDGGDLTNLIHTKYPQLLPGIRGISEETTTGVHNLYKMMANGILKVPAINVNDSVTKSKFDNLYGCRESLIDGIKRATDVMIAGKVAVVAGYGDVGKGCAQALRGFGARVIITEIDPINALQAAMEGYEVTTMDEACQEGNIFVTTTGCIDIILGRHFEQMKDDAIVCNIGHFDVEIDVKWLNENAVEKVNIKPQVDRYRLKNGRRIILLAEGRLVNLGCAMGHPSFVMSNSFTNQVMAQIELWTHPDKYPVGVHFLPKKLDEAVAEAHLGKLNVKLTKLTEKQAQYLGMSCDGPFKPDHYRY

MLL1 complex = MLL1 complex (Homo sapiens, UniProt Q03164); assay: SAM-dependent methyltransferase panel; type: biochemical; settings: single dose of 50 μM
Chain of MLL1 complex (Q9C005 whole entry): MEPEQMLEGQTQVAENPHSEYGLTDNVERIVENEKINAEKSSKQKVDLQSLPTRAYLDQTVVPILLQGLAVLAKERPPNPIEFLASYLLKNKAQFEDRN
Chain of MLL1 complex (Q03164 3745-3969): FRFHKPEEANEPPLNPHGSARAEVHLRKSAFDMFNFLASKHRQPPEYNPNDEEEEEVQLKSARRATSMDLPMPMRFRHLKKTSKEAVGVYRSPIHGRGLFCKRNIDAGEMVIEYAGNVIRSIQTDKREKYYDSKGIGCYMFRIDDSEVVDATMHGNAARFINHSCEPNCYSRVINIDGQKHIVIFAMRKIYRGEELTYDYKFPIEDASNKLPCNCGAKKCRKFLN
Chain of MLL1 complex (Q15291 whole entry, further chain): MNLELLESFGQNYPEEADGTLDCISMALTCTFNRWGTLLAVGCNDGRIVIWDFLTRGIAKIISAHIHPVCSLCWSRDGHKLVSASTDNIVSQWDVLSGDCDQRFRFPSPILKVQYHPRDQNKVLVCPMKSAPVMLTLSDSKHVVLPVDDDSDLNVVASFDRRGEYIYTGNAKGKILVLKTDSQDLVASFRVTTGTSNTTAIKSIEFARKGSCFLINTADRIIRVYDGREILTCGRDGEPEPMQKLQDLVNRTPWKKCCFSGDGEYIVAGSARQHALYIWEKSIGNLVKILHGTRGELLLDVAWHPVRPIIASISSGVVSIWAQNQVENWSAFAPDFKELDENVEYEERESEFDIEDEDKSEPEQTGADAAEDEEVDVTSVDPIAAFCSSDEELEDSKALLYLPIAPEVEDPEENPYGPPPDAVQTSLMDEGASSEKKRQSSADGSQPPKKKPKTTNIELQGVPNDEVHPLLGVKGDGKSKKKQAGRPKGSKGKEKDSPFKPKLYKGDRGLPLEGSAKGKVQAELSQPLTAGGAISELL
Chain of MLL1 complex (Q9UBL3 96-628, further chain): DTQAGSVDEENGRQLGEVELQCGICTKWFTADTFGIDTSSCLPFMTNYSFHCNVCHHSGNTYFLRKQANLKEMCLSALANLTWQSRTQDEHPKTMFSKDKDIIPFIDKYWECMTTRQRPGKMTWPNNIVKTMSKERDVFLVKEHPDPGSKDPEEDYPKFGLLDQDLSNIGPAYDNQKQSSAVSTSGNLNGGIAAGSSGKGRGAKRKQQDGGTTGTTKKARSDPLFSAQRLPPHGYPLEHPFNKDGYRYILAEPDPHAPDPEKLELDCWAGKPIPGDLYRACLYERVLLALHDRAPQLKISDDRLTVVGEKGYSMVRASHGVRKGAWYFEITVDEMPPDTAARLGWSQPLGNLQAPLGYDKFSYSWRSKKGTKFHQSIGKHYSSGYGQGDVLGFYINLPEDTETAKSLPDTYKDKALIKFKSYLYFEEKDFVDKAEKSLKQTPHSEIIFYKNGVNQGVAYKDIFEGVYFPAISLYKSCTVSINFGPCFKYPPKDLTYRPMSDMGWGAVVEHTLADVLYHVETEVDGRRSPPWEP

[2] = tested on: me3-RCC1 and me3-SET in HEK293 cells; settings: cited from earlier work
GCS = molecular target: T5, GCS (Homo sapiens, UniProt Q16739); type: cell-based; settings: 30 nM, HCT116 cells
T5 sequence (Q16739 1-394): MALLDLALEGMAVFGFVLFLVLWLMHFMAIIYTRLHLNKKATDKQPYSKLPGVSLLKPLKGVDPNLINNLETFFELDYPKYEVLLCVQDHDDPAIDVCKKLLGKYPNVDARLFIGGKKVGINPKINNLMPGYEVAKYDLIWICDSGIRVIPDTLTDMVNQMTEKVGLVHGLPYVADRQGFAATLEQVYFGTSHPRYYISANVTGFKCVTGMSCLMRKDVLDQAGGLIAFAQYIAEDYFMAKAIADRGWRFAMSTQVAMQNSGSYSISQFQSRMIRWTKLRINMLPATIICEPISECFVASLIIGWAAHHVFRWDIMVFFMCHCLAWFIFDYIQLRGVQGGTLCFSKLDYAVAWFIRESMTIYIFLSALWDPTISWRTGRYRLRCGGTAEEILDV

SMILES: CC(C)(NC(=O)Oc1cccnc1)c1csc(-c2ccc(F)cc2)n1 [Compound 8, Pyridin-3-yl (2-(2-(4-Fluorophenyl)thiazol-4-yl)propan-2-yl)carbamate]
NTMT1 inhibition (in words) (NTMT1): null activity

fold loss of potency compared to venglustat (NTMT1; NTMT1 IC50): over 40 fold
SMILES: CCCN1CCC[C@H](OC(=O)NC(C)(C)c2csc(-c3ccc(F)cc3)n2)C1 [Compound 6, (S)-1-propylpiperidin-3-yl (2-(2-(4-Fluorophenyl)thiazol-4-yl)propan-2-yl)carbamate]

SMILES: CC(C)(NC(=O)O[C@@H]1CN2CCC1CC2)c1csc(-c2cncnc2)n1 [YD2160]
change in me3-RCC1 or me3-SET ([1]; up to 30 μM): did not induce any change

SMILES: CC(C)(NC(=O)O[C@@H]1CN2CCC1CC2)c1csc(-c2ccc(F)c(O)c2)n1 [GD433]
inhibition (NNMT; 10 μM): no significant inhibition
inhibition (NNMT; 30 μM): no significant inhibition
inhibition (NNMT; 100 μM): did not exhibit inhibition
inhibition (G9a; 10 μM): no significant inhibition
inhibition (G9a; 30 μM): no significant inhibition
inhibition (G9a; 100 μM): did not exhibit inhibition
inhibition (TbPRMT7; 10 μM): no significant inhibition
inhibition (TbPRMT7; 30 μM): no significant inhibition
inhibition (TbPRMT7; 100 μM): did not exhibit inhibition
inhibition (NTMT2): potently inhibited
inhibition (SETD7; 10 μM): no significant inhibition
inhibition (SETD7; 30 μM): no significant inhibition
inhibition (SETD7; 100 μM): did not exhibit inhibition
inhibition (PRMT1; 10 μM): no significant inhibition
inhibition (PRMT1; 30 μM): no significant inhibition
inhibition (PRMT1; 100 μM): 50%
inhibition (SAHH; 10 μM): no significant inhibition
inhibition (SAHH; 30 μM): no significant inhibition
inhibition (SAHH; 100 μM): did not exhibit inhibition
inhibition (MLL1 complex): ~ 25%

fold loss of potency compared to venglustat (NTMT1; NTMT1 IC50): over 40 fold
SMILES: CN1CCC[C@H](OC(=O)NC(C)(C)c2csc(-c3ccc(F)cc3)n2)C1 [Compound 5, (S)-1-methylpiperidin-3-yl (2-(2-(4-Fluorophenyl)thiazol-4-yl)propan-2-yl)carbamate]

SMILES: CC(C)(NC(=O)O[C@@H]1CN2CCC1CC2)c1csc(-c2ccc(Cl)c(O)c2)n1 [YD2200]
effect on me3-RCC1 and me3-SET ([1]; 1 μM): significantly reduces
IC50 ([1]; read-out: approximate IC50, me3-RCC1 and me3-SET): ~300 nM

SMILES: CC(C)(C(=O)N[C@@H]1CN2CCC1CC2)c1csc(-c2ccc(F)cc2)n1 [Compound 10, 2-(2-(4-Fluorophenyl)thiazol-4-yl)-2-methyl-N-(quinuclidin-3-yl)propenamide]
NTMT1 inhibition (in words) (NTMT1): did not show any inhibition

SMILES: CC(C)(NC(=O)O[C@@H]1CN2CCC1CC2)c1csc(-c2ccc(F)cc2)n1 [venglustat, (S)-quinuclidin-3-yl (2-(2-(4-Fluorophenyl)thiazol-4-yl)propan-2-yl)carbamate]
IC50 ([2]; cellular inhibition assay): 500 nM
IC50 ([2]; read-out: approximate IC50, me3-RCC1 and me3-SET, HEK293 cells): ~300 nM
inhibition of cellular GCS activity (GCS): significantly inhibits

fold reduction compared to 6 (NTMT1; NTMT1 IC50): > 5 fold
SMILES: CC(C)(NC(=O)OCCN1CCCCC1)c1csc(-c2ccc(F)cc2)n1 [Compound 7, 2-(Piperidin-1-yl)ethyl (2-(2-(4-Fluorophenyl)thiazol-4-yl)propan-2-yl)carbamate]

SMILES: CC(C)(NC(=O)N[C@@H]1CN2CCC1CC2)c1csc(-c2ccc(F)cc2)n1 [Compound 9, 1-(2-(2-(4-Fluorophenyl)thiazol-4-yl)propan-2-yl)-3-(quinuclidin-3-yl)urea]
fold loss of potency compared to venglustat (NTMT1; NTMT1 IC50): > 100 fold
